Experiments:
[1] = tested on: E. coli, Stafelococus, Bascillus, and Salmonella; assay: Bactericidal efficacy of diluted disinfectants on actively growing pathogenic bacteria; assay type: cell-based; settings: H2O2 absent; about 51 ppm complex silver
Procedure: Again, these prepared solutions were poured into dark bottles.
The above concludes the preparation of these disinfectants. However, to utilize these mixtures as bactericides, 5 ml of each bottled solution was added to 45 ml of double distilled-de-ionized water (10% by volume). […] The upper and lower concentration limits may be different if desired, depending on the nature of the desired application. For the samples where H2O2 is present, the active concentration of the disinfectant should be around 56,000 ppm.
The diluted solutions were then tested on several kinds of actively growing pathogenic bacteria to ascertain their effectiveness. Different strains of pathogenic bacteria were employed for the testing; namely, E. coli, Stafelococus, Bascillus, and Salmonella.

freshly-cut roses = assay: Preservation of cut flowers and plants; settings: examined after 15 days; silver approximately 166 ppb in tap water for the invention's sample
Procedure: A silver concentration of approximately 166 ppb was used. Both inoculated and controlled samples were tested in which freshly-cut roses were placed in the prepared solution and tap water, respectively. Cut roses were chosen because they are very susceptible to slight changes in the surrounding area and are equally susceptible to chemicals. For comparative purposes, other preservative type chemicals were also tested; namely, silver thiosulfate and hypochlorite.
In the case of the two other chemicals used, it was observed that there was discoloration of the petals, loss of leaves and petals, and dehydration.

## Silver-Arginine Complex [Example 3]
[1]
  order of potency among the amino acid complexes: most potency

## Silver-glutamic Acid Complex [Example 1]
freshly-cut roses
  condition of cut roses: no black or brown burns on the petals and there were no wilted flowers, and the stems and leaves were in good condition

From patent US6939566B2, “Microbicidal formulations and methods to control microorganisms” (priority 1999, dated 2005)
